The results in this text go back to the NIST ThermoML archive (doi:10.1016/j.jct.2010.06.003).

The structures appear in SMILES notation. Numbers after ± are expanded uncertainties.

Data set [1] is described as follows: Molar enthalpy of transition or fusion. The following applies: Crystal; DSC.
The conditions of data set [2]: Crystal; DTA.

Regarding `O=c1oc2ccccc2cc1O` [3-hydroxycoumarin], in data set [1], the “Molar enthalpy of transition or fusion” value worked out at 27.1 ± 0.61 kJ/mol. Further, the Triple point temperature in data set [2] turned out to be 425.62 ± 0.39 K.
On the same counts, the results for `O=c1cc(O)c2ccccc2o1` [4-hydroxycoumarin] are 23.2 ± 0.59 kJ/mol and 483.62 ± 0.91 K.
